Like-named read-outs stand apart in the source and are kept apart here.
Columns and labels:
Surinam grass = test: Test B pre-/postemergence herbicide test; type: in vivo, Urochloa decumbens; conditions: Urochloa decumbens; for pest or weed control at 125 g/ha: 125 g ai/ha; for pest or weed control at 500 g/ha: 500 g ai/ha
In short: (§1)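 Pre: seeds sown, then sprayed. Post: 1–4-leaf plants (2–18 cm) sprayed at the same time. Paddy: flooded, treated at 2-leaf stage. Formulation: non-phytotoxic solvent with surfactant. Greenhouse 13–15 days; visual 0–100 score relative to controls.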

rice = test: Test B flooded paddy test; type: in vivo, Oryza sativa; conditions: Oryza sativa, 336 h, 1000 g ai/ha, visual rating, scale 0 to 100 (0 no effect, 100 complete control), 13 to 15 days, read-out: Rice plant response rating
In short: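 Plants grow to 1- to 4-leaf stage (2–18 cm) for postemergence spraying, or to 2-leaf stage for the paddy test. Formulated compound is applied. Greenhouse holding lasts 13–15 days. Response is scored visually relative to controls, 0 no effect to 100 complete control; a dash means no result.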

morningglory = test: Test B pre-/postemergence herbicide test; type: in vivo, Ipomoea coccinea; conditions: Ipomoea, 336 h; for pest or weed control at 125 g/ha: 125 g ai/ha; for pest or weed control at 500 g/ha: 500 g ai/ha
In short: (§2)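 Plants compared with untreated controls 13–15 days post-treatment and given a visual 0–100 injury score. Applications: preemergence to seeds; postemergence at 1- to 4-leaf (2–18 cm); paddy species flooded, 2-leaf stage. Vehicle non-phytotoxic, surfactant included.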

corn = test: Test B pre-/postemergence herbicide test; type: in vivo, Zea mays; conditions: Zea mays; for plant injury at 125 g/ha: 125 g ai/ha
In short: as §1

cocklebur = test: Test B pre-/postemergence herbicide test; type: in vivo, Xanthium strumarium; conditions: Xanthium strumarium; for pest or weed control at 125 g/ha: 125 g ai/ha; for pest or weed control at 500 g/ha: 500 g ai/ha
In short: as §2

barnyardgrass [1] = test: Test B pre-/postemergence herbicide test; type: in vivo, Echinochloa crus-galli; conditions: Echinochloa crus-galli; for pest or weed control at 125 g/ha: 125 g ai/ha; for pest or weed control at 500 g/ha: 500 g ai/ha
In short: as §2

large crabgrass = test: Test B pre-/postemergence herbicide test; type: in vivo, Digitaria sanguinalis; conditions: Digitaria sanguinalis; for pest or weed control at 125 g/ha: 125 g ai/ha; for pest or weed control at 500 g/ha: 500 g ai/ha
In short: as §1

pigweed = test: Test B pre-/postemergence herbicide test; type: in vivo, Amaranthus retroflexus; conditions: Amaranthus retroflexus, 336 h; for pest or weed control at 125 g/ha: 125 g ai/ha; for pest or weed control at 500 g/ha: 500 g ai/ha
In short: as §1

lambsquarters = test: Test B pre-/postemergence herbicide test; type: in vivo, Chenopodium album; conditions: Chenopodium album, 336 h; for pest or weed control at 125 g/ha: 125 g ai/ha; for pest or weed control at 500 g/ha: 500 g ai/ha
In short: as §1

velvetleaf = test: Test B pre-/postemergence herbicide test; type: in vivo, Abutilon theophrasti; conditions: Abutilon theophrasti, 336 h; for pest or weed control at 125 g/ha: 125 g ai/ha; for pest or weed control at 500 g/ha: 500 g ai/ha
In short: as §1

[2] = system: small flower umbrella sedge; test: Test B flooded paddy test; type: in vivo, Cyperus difformis; conditions: Cyperus difformis, 336 h, 1000 g ai/ha, visual rating, scale 0 to 100 (0 no effect, 100 complete control), 13 to 15 days, read-out: Sedge, Umbrella plant response rating
In short: (§3)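 Formulated test chemicals went onto postemergence plants measuring 2 to 18 cm, at one to four leaves. For the paddy assay, species had reached two leaves. Scoring took place 13–15 days later by eye, relative to untreated plants, using 0 for no effect up to 100 for full control.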

wheat = test: Test B postemergence herbicide test; type: in vivo, Triticum aestivum; conditions: Triticum aestivum, post-emergence, 336 h, postemergence, visual rating, scale 0 (no effect) to 100 (complete control), read-out: Wheat plant response rating
In short: as §3

wild oat = test: Test B postemergence herbicide test; type: in vivo, Avena fatua; conditions: Avena fatua, post-emergence, 336 h, postemergence, visual rating, scale 0 (no effect) to 100 (complete control), read-out: Oat, Wild plant response rating
In short: as §3

giant foxtail = test: Test B pre-/postemergence herbicide test; type: in vivo, Setaria faberi; conditions: Setaria faberi, 336 h; for pest or weed control at 125 g/ha: 125 g ai/ha; for pest or weed control at 500 g/ha: 500 g ai/ha
In short: as §1

barnyardgrass [3] = test: Test B flooded paddy test; type: in vivo, Echinochloa crus-galli; conditions: Echinochloa crus-galli, 336 h, 1000 g ai/ha, visual rating, scale 0 to 100 (0 no effect, 100 complete control), 13 to 15 days, read-out: Barnyardgrass plant response rating
In short: as §3

[4] = post-emergence, postemergence, visual rating, scale 0 (no effect) to 100 (complete control), read-out: Surinam Grass plant response rating
[5] = post-emergence, postemergence, visual rating, scale 0 (no effect) to 100 (complete control), read-out: Morningglory plant response rating
[6] = post-emergence, postemergence, visual rating, scale 0 (no effect) to 100 (complete control), read-out: Cocklebur plant response rating
[7] = post-emergence, postemergence, visual rating, scale 0 (no effect) to 100 (complete control), read-out: Barnyardgrass plant response rating
[8] = post-emergence, postemergence, visual rating, scale 0 (no effect) to 100 (complete control), read-out: Crabgrass, Large plant response rating
[9] = post-emergence, postemergence, visual rating, scale 0 (no effect) to 100 (complete control), read-out: Pigweed plant response rating
[10] = post-emergence, postemergence, visual rating, scale 0 (no effect) to 100 (complete control), read-out: Lambsquarters plant response rating
[11] = post-emergence, postemergence, visual rating, scale 0 (no effect) to 100 (complete control), read-out: Velvetleaf plant response rating
[12] = post-emergence, postemergence, visual rating, scale 0 (no effect) to 100 (complete control), read-out: Foxtail, Giant plant response rating

Q: Which pest or weed control at 125 g/ha (Surinam grass; [4]) does the source give for `CCc1nn(C(C)(C)C)cc1C(=O)Nc1cccc(C(=O)N(CC)CC)c1` [Compound 182, N-[3-[(diethylamino)carbonyl]phenyl]-1-(1,1-dimethylethyl)-3-ethyl-1H-pyrazole-4-carboxamide] here?
A: 10%

Q: And the pest or weed control at 500 g/ha (Surinam grass; [4])?
A: 20%

Q: What about the pest or weed control at 125 g/ha (Surinam grass; pre-emergence, 0 = no effect, 100 = complete control, read-out: Surinam Grass plant response rating (0 to 100 scale)) of the same compound?
A: 20%

Q: What about the pest or weed control at 500 g/ha (Surinam grass; pre-emergence, visual rating 0-100, 0 no effect, 100 complete control, read-out: Plant response rating, Surinam Grass) of the same compound?
A: 60%

Q: What about the plant injury at 1000 g/ha (rice) of the same compound?
A: 0%

Q: What about the pest or weed control at 125 g/ha (morningglory; [5]) of the same compound?
A: 50%

Q: And the pest or weed control at 500 g/ha (morningglory; [5])?
A: 70%

Q: What about the pest or weed control at 125 g/ha (morningglory; pre-emergence, 0 = no effect, 100 = complete control, read-out: Morningglory plant response rating (0 to 100 scale)) of the same compound?
A: 10%

Q: And the pest or weed control at 500 g/ha (morningglory; pre-emergence, visual rating 0-100, 0 no effect, 100 complete control, read-out: Plant response rating, Morningglory)?
A: 30%

Q: What about the plant injury at 125 g/ha (corn; post-emergence, postemergence, visual rating, scale 0 (no effect) to 100 (complete control), read-out: Corn plant response rating) of the same compound?
A: 30%

Q: What about the plant injury at 500 g/ha (corn; post-emergence, postemergence, 500 g ai/ha, visual rating, scale 0 (no effect) to 100 (complete control), read-out: Corn plant response rating) of the same compound?
A: 30%

Q: And the plant injury at 125 g/ha (corn; pre-emergence, 0 = no effect, 100 = complete control, read-out: Corn plant response rating (0 to 100 scale))?
A: 0%

Q: What about the Corn plant response rating (crop injury, 0 = no effect, 100 = complete kill) at 500 g/ha (corn; pre-emergence, 500 g ai/ha, visual rating 0-100, 0 no effect, 100 complete control) of the same compound?
A: 0%

Q: And the pest or weed control at 125 g/ha (cocklebur; [6])?
A: 50%

Q: What about the pest or weed control at 500 g/ha (cocklebur; [6]) of the same compound?
A: 60%

Q: And the pest or weed control at 125 g/ha (cocklebur; pre-emergence, 0 = no effect, 100 = complete control, read-out: Cocklebur plant response rating (0 to 100 scale))?
A: 0%

Q: What about the pest or weed control at 500 g/ha (cocklebur; pre-emergence, visual rating 0-100, 0 no effect, 100 complete control, read-out: Plant response rating, Cocklebur) of the same compound?
A: 0%

Q: And the pest or weed control at 125 g/ha (barnyardgrass [1]; [7])?
A: 30%

Q: And the pest or weed control at 500 g/ha (barnyardgrass [1]; [7])?
A: 50%

Q: What about the pest or weed control at 125 g/ha (barnyardgrass [1]; pre-emergence, 0 = no effect, 100 = complete control, read-out: Barnyardgrass plant response rating (0 to 100 scale)) of the same compound?
A: 20%

Q: And the pest or weed control at 500 g/ha (barnyardgrass [1]; pre-emergence, visual rating 0-100, 0 no effect, 100 complete control, read-out: Plant response rating, Barnyardgrass)?
A: 80%

Q: And the pest or weed control at 125 g/ha (large crabgrass; [8])?
A: 20%

Q: And the pest or weed control at 500 g/ha (large crabgrass; [8])?
A: 30%

Q: And the pest or weed control at 125 g/ha (large crabgrass; pre-emergence, 0 = no effect, 100 = complete control, read-out: Crabgrass, Large plant response rating (0 to 100 scale))?
A: 70%

Q: What about the pest or weed control at 500 g/ha (large crabgrass; pre-emergence, visual rating 0-100, 0 no effect, 100 complete control, read-out: Plant response rating, Crabgrass, Large) of the same compound?
A: 100%

Q: And the pest or weed control at 125 g/ha (pigweed; [9])?
A: 50%

Q: And the pest or weed control at 500 g/ha (pigweed; [9])?
A: 70%

Q: And the pest or weed control at 125 g/ha (pigweed; pre-emergence, 0 = no effect, 100 = complete control, read-out: Pigweed plant response rating (0 to 100 scale))?
A: 100%

Q: And the pest or weed control at 500 g/ha (pigweed; pre-emergence, visual rating 0-100, 0 no effect, 100 complete control, read-out: Plant response rating, Pigweed)?
A: 100%

Q: And the pest or weed control at 125 g/ha (lambsquarters; [10])?
A: 60%

Q: And the pest or weed control at 500 g/ha (lambsquarters; [10])?
A: 70%

Q: What about the pest or weed control at 125 g/ha (lambsquarters; pre-emergence, 0 = no effect, 100 = complete control, read-out: Lambsquarters plant response rating (0 to 100 scale)) of the same compound?
A: 20%

Q: What about the pest or weed control at 500 g/ha (lambsquarters; pre-emergence, visual rating 0-100, 0 no effect, 100 complete control, read-out: Plant response rating, Lambsquarters) of the same compound?
A: 100%

Q: And the pest or weed control at 125 g/ha (velvetleaf; [11])?
A: 0%

Q: And the pest or weed control at 500 g/ha (velvetleaf; [11])?
A: 60%

Q: And the pest or weed control at 125 g/ha (velvetleaf; pre-emergence, 0 = no effect, 100 = complete control, read-out: Velvetleaf plant response rating (0 to 100 scale))?
A: 0%

Q: What about the pest or weed control at 500 g/ha (velvetleaf; pre-emergence, visual rating 0-100, 0 no effect, 100 complete control, read-out: Plant response rating, Velvetleaf) of the same compound?
A: 70%

Q: What about the pest or weed control at 1000 g/ha [2] of the same compound?
A: 80%

Q: What about the plant injury at 125 g/ha (wheat; 125 g ai/ha) of the same compound?
A: 0%

Q: And the plant injury at 500 g/ha (wheat; 500 g ai/ha)?
A: 10%

Q: What about the pest or weed control at 125 g/ha (wild oat; 125 g ai/ha) of the same compound?
A: 20%

Q: And the pest or weed control at 500 g/ha (wild oat; 500 g ai/ha)?
A: 30%

Q: And the pest or weed control at 125 g/ha (giant foxtail; [12])?
A: 0%

Q: What about the pest or weed control at 500 g/ha (giant foxtail; [12]) of the same compound?
A: 20%

Q: What about the pest or weed control at 125 g/ha (giant foxtail; pre-emergence, 0 = no effect, 100 = complete control, read-out: Foxtail, Giant plant response rating (0 to 100 scale)) of the same compound?
A: 30%

Q: What about the pest or weed control at 500 g/ha (giant foxtail; pre-emergence, visual rating 0-100, 0 no effect, 100 complete control, read-out: Plant response rating, Foxtail, Giant) of the same compound?
A: 100%

Q: What about the pest or weed control at 1000 g/ha (barnyardgrass [3]) of the same compound?
A: 40%

From patent US20060069132A1, “Azolecarboxamide herbicides” (priority 2004, published 2006)
